The results in this text go back to the supplement of paper PMC10307832.

Holding throughout (test): relative viability (nuclei count vs DMSO), 5 days (fraction); higher = more cells survive
Compound in the assay “CUDC-101 + Decitabine”: C#Cc1cccc(Nc2ncnc3cc(OC)c(OCCCCCCC(=O)NO)cc23)c1 [CUDC-101] + Nc1ncn([C@H]2C[C@H](O)[C@@H](CO)O2)c(=O)n1 [Decitabine] (partner 2 µM)
The method, boiled down:
(§1)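 Relative viability divides the nuclei count in treated wells by that in vehicle wells. Lung cancer cell lines were seeded in 1536-well plates, dosed by pin tool the next day, and fixed and stained after 5 days in one step with final 0.05% Triton X-100, 1% formaldehyde and 1 ug/ml Hoechst. Dosing was a single drug or a fixed anchor-drug dose plus five library-drug doses (not always all listed) in √10 steps, and values are medians of duplicate plates imaged at 4×.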

Compound in assay [1]: C1=CC=C2C(=C1)N=C(S2)C(C#N)C3=NC(=NC=C3)NCCC4=CN=CC=C4 + CCNC(=O)c1noc(-c2cc(C(C)C)c(O)cc2O)c1-c1ccc(CN2CCOCC2)cc1 [Luminespib] (partner 0.01 µM)
The method, boiled down: as §1

Compound in the assay “Vandetanib + Alpelisib”: COc1cc2/c(=N/c3ccc(Br)cc3F)nc[nH]c2cc1OCC1CCN(C)CC1 [Vandetanib] + Cc1nc(NC(=O)N2CCC[C@H]2C(N)=O)sc1-c1ccnc(C(C)(C)C(F)(F)F)c1 [Alpelisib] (partner 2 µM)
The gist of the method: as §1

Compound in the assay “Vandetanib + Pictilisib”: COc1cc2/c(=N/c3ccc(Br)cc3F)nc[nH]c2cc1OCC1CCN(C)CC1 [Vandetanib] + CS(=O)(=O)N1CCN(Cc2cc3nc(-c4cccc5[nH]ncc45)nc(N4CCOCC4)c3s2)CC1 [Pictilisib] (partner 1 µM)
The method, boiled down: as §1

For UMC-11, the relative viability with CUDC-101 + Decitabine (first compound 0.01 µM) was 0.761; with CUDC-101 + Decitabine (first compound 0.03162 µM) it was 0.477; with CUDC-101 + Decitabine (first compound 0.1 µM), 0.601; with CUDC-101 + Decitabine (first compound 0.3162 µM), 0.462; with CUDC-101 + Decitabine (first compound 1 µM), 0.221; in assay [1] (first compound 0.005 µM) it was 0.735. Also, the relative viability in assay [1] (first compound 0.01581 µM) was 1.04; in assay [1] (first compound 0.05 µM), 0.861; in assay [1] (first compound 0.1581 µM), 1.03; in assay [1] (first compound 0.5 µM) it was 0.957; with Vandetanib + Alpelisib (first compound 0.02 µM), 0.897; in the assay with Vandetanib + Alpelisib (first compound 0.06325 µM), 0.975. For the same cell line, the relative viability with Vandetanib + Alpelisib (first compound 0.2 µM) is 0.905; in the assay with Vandetanib + Alpelisib (first compound 0.6325 µM) it was 0.908; with Vandetanib + Alpelisib (first compound 2 µM), 0.922; with Vandetanib + Pictilisib (first compound 0.02 µM), 0.75; in the assay with Vandetanib + Pictilisib (first compound 0.06325 µM), 0.78; with Vandetanib + Pictilisib (first compound 0.2 µM), 0.694. The relative viability with Vandetanib + Pictilisib (first compound 0.6325 µM) is 0.667; in the assay with Vandetanib + Pictilisib (first compound 2 µM) it was 0.857.
